Data reported in EP0104300A1, “Diazolyl alkanoles, process for their preparation and their use as antimycotic agents” (BAYER AG, priority 1982, dated 1984).

Tested on: Candida-Zellen
Test: Antimycotic in-vivo efficacy (oral) in mouse candidosis
Set-up: species or system Mäuse vom Typ SPF-CF1; key: +++++: sehr gute Wirkung = 90 % Ueberlebende am 6.Tag p.i.; ++++: gute Wirkung = 80 % Ueberlebende am 6 Tag p.i.; +++: Wirkung = 60 % Ueberlebende am 6. Tag p.i.; ++: schwache Wirkung = 40 % Ueberlebende am 6.Tag p.i.; +: Spur Wirkung =; k.W.: keine Wirkung
Details: mice infected i.v. with 1 - 2 x 10^6 Candida cells; oral treatment with 50 - 100 mg/kg each, 1 h before and 7 h after infection; survivors on day 6 p.i.
Procedure: Antimykotische in-vivo-Wirksamkeit (oral) bei Mäusecandidose Versuchsbeschreibun:
Mäuse vom Typ SPF-CF1 wurden intravenös mit 1 - 2 x 10^6 logarithmisch wachsenden Candida-Zellen, die in physiologischer Kochsalzlösung suspendiert werden, infiziert. Eine Stunde vor und sieben Stunden nach der Infektion werden die Tiere mit jeweils 50 - 100 mg/kg Körpergewicht der Präparate oral behandelt.
Unbehandelte Tiere starben 3 bis 6 Tage post infektionem. Die Ueberlebensrate am 6.Tag post infektionem betrug bei unbehandelten Kontrolltieren etwa 5 %. In diesem Test zeigten z.B. die erfindungsgemäßen Verbindungen eine bessere Wirkung als die aus dem Stand der Technik bekannten Verbindungen 1 und 3.
+++++ = sehr gute Wirkung = 90 % Ueberlebende am 6.Tag p.i. ++++ = gute Wirkung = 80 % Ueberlebende am 6 Tag p.i. +++ = Wirkung = 60 % Ueberlebende am 6. Tag p.i. ++ = schwache Wirkung = 40 % Ueberlebende am 6.Tag p.i. + = Spur Wirkung = k.W. = keine Wirkung

## OC(Cc1ccc(Cl)cc1Cl)(Cn1ccnc1)c1ccc(-c2ccccc2)cc1 (centres unmarked) [(A), 2-(4-Biphenylyl)-1-(2,4-dichlorphenyl)-3-(imidazoL-1-yL)-2-propanoL]
  Wirkung: k.W.

## CC(C)(C)C(O)(COc1ccc(Cl)cc1)Cn1ccnc1 (centres unmarked) [(B), 2-(4-Chlorphenoxymethyl)-3,3-dimethyl-1-(imidazol-1-yl)-butan-2-ol]
  Wirkung: k.W.

## Cc1ccccc1OCC(O)(Cn1ccnc1)C(C)(C)C (centres unmarked) [(C)]
  Wirkung: k.W.

## OC(C#Cc1ccccc1)(Cn1cncn1)Cn1cncn1 [Beispiel 1, 3-Hydroxy-1-phenyL-4-(1,2,4-triazol-1-yl)-3-(1,2,4-triazol-1-yl-methyl)-1-butin]
  Wirkung: +++ (Wirkung = 60 % Ueberlebende am 6. Tag p.i.)

## OC(C#Cc1ccc(Cl)cc1)(Cn1cncn1)Cn1cncn1 [Beispiel 3]
  Wirkung: +++++ (sehr gute Wirkung = 90 % Ueberlebende am 6.Tag p.i.)
